{"source": "patent US20220281848A1", "about": "“PYRAZOLE-SUBSTITUTED PYRROLIDINONES AS HERBICIDES” (FMC Corporation, priority 2019, published 2022)", "system": "plants", "experiment": "Test D post-emergence, other plants of Tables D2 and D4", "assay_type": "in vivo", "details": "for STEME damage rating (100=total damage to plant; 0=no damage to plant) / VERPE damage rating (100=total damage to plant; 0=no damage to plant): \"Cereals\" Postemergent, evaluated after 15 d; for damage to plant (100=total damage to plant; 0=no damage to plant), ABUTH / damage to plant (100=total damage to plant; 0=no damage to plant), AMARE / damage to plant (100=total damage to plant; 0=no damage to plant), BIDPI / damage to plant (100=total damage to plant; 0=no damage to plant), BRAPL / damage to plant (100=total damage to plant; 0=no damage to plant), CYPES / damage to plant (100=total damage to plant; 0=no damage to plant), DIGSA / damage to plant (100=total damage to plant; 0=no damage to plant), ECHCG / damage to plant (100=total damage to plant; 0=no damage to plant), ELEIN / damage to plant (100=total damage to plant; 0=no damage to plant), EPHHL / damage to plant (100=total damage to plant; 0=no damage to plant), GLXMA / damage to plant (100=total damage to plant; 0=no damage to plant), IPOHE / damage to plant (100=total damage to plant; 0=no damage to plant), ORYSA / damage to plant (100=total damage to plant; 0=no damage to plant), PANMI / damage to plant (100=total damage to plant; 0=no damage to plant), SETFA / damage to plant (100=total damage to plant; 0=no damage to plant), SORVU: post-emergence", "method": "A formulation containing 50 g/L of the test chemical was prepared by dissolving the active ingredient in a mixture of organic solvents and emulsifier, details of which are provided in the table. This formulation was then mixed with a small, variable amount of acetone to aid dissolution, before addition of a 0.2% v/v aqueous solution of an adjuvant, as the aqueous diluent, to form an aqueous spray solution which contains a predetermined concentration of the active ingredient.\nThis aqueous spray solution was then sprayed onto plants including maize and wheat that had been seed treated with a herbicide safener, after one day's cultivation (for pre-emergence) or after about 12 days' cultivation (for post-emergence). The plants were grown from seeds sown in standard soil, placed in a glasshouse under controlled conditions (at 24/18° C. or 20/16° C., day/night; 16 h light; 65% humidity). After spray application the plants were then grown in a glasshouse under the same conditions and watered twice daily. After 15 d for post-emergence and 20 DAA for pre-emergence the test was evaluated (100=total damage to plant; 0=no damage to plant).", "data": [{"molecule": "CN1CC(c2cc(C(F)(F)F)n(C)n2)C(C(=O)Nc2cccc(F)c2C(F)(F)F)C1=O", "note": "(racemic) [Compound 19]", "values": [{"measurement": "STEME damage rating (100=total damage to plant; 0=no damage to plant)", "setting": "Rates 250", "result": 0}, {"measurement": "STEME damage rating (100=total damage to plant; 0=no damage to plant)", "setting": "Rates 500", "result": 0}, {"measurement": "VERPE damage rating (100=total damage to plant; 0=no damage to plant)", "setting": "Rates 130", "result": 0}, {"measurement": "VERPE damage rating (100=total damage to plant; 0=no damage to plant)", "setting": "Rates 250", "result": 0}, {"measurement": "VERPE damage rating (100=total damage to plant; 0=no damage to plant)", "setting": "Rates 500", "result": 10}, {"measurement": "damage to plant (100=total damage to plant; 0=no damage to plant), ABUTH", "setting": "rate 130, evaluated after 15 d", "result": 0}, {"measurement": "damage to plant (100=total damage to plant; 0=no damage to plant), ABUTH", "setting": "rate 250, evaluated after 15 d", "result": 10}, {"measurement": "damage to plant (100=total damage to plant; 0=no damage to plant), ABUTH", "setting": "rate 500, evaluated after 15 d", "result": 20}, {"measurement": "damage to plant (100=total damage to plant; 0=no damage to plant), AMARE", "setting": "rate 130, evaluated after 15 d", "result": 0}, {"measurement": "damage to plant (100=total damage to plant; 0=no damage to plant), AMARE", "setting": "rate 250, evaluated after 15 d", "result": 10}, {"measurement": "damage to plant (100=total damage to plant; 0=no damage to plant), AMARE", "setting": "rate 500, evaluated after 15 d", "result": 20}, {"measurement": "damage to plant (100=total damage to plant; 0=no damage to plant), BIDPI", "setting": "rate 130, evaluated after 15 d", "result": 0}, {"measurement": "damage to plant (100=total damage to plant; 0=no damage to plant), BIDPI", "setting": "rate 250, evaluated after 15 d", "result": 0}, {"measurement": "damage to plant (100=total damage to plant; 0=no damage to plant), BIDPI", "setting": "rate 500, evaluated after 15 d", "result": 10}, {"measurement": "damage to plant (100=total damage to plant; 0=no damage to plant), BRAPL", "setting": "rate 130, evaluated after 15 d", "result": 60}, {"measurement": "damage to plant (100=total damage to plant; 0=no damage to plant), BRAPL", "setting": "rate 250, evaluated after 15 d", "result": 70}, {"measurement": "damage to plant (100=total damage to plant; 0=no damage to plant), BRAPL", "setting": "rate 500, evaluated after 15 d", "result": 80}, {"measurement": "damage to plant (100=total damage to plant; 0=no damage to plant), CYPES", "setting": "rate 130, evaluated after 15 d", "result": 0}, {"measurement": "damage to plant (100=total damage to plant; 0=no damage to plant), CYPES", "setting": "rate 250, evaluated after 15 d", "result": 0}, {"measurement": "damage to plant (100=total damage to plant; 0=no damage to plant), CYPES", "setting": "rate 500, evaluated after 15 d", "result": 0}, {"measurement": "damage to plant (100=total damage to plant; 0=no damage to plant), DIGSA", "setting": "rate 130, evaluated after 15 d", "result": 60}, {"measurement": "damage to plant (100=total damage to plant; 0=no damage to plant), DIGSA", "setting": "rate 250, evaluated after 15 d", "result": 70}, {"measurement": "damage to plant (100=total damage to plant; 0=no damage to plant), DIGSA", "setting": "rate 500, evaluated after 15 d", "result": 80}, {"measurement": "damage to plant (100=total damage to plant; 0=no damage to plant), ECHCG", "setting": "rate 130, evaluated after 15 d", "result": 10}, {"measurement": "damage to plant (100=total damage to plant; 0=no damage to plant), ECHCG", "setting": "rate 250, evaluated after 15 d", "result": 20}, {"measurement": "damage to plant (100=total damage to plant; 0=no damage to plant), ECHCG", "setting": "rate 500, evaluated after 15 d", "result": 70}, {"measurement": "damage to plant (100=total damage to plant; 0=no damage to plant), ELEIN", "setting": "rate 130, evaluated after 15 d", "result": 10}, {"measurement": "damage to plant (100=total damage to plant; 0=no damage to plant), ELEIN", "setting": "rate 250, evaluated after 15 d", "result": 10}, {"measurement": "damage to plant (100=total damage to plant; 0=no damage to plant), ELEIN", "setting": "rate 500, evaluated after 15 d", "result": 60}, {"measurement": "damage to plant (100=total damage to plant; 0=no damage to plant), EPHHL", "setting": "rate 130, evaluated after 15 d", "result": 0}, {"measurement": "damage to plant (100=total damage to plant; 0=no damage to plant), EPHHL", "setting": "rate 250, evaluated after 15 d", "result": 10}, {"measurement": "damage to plant (100=total damage to plant; 0=no damage to plant), EPHHL", "setting": "rate 500, evaluated after 15 d", "result": 30}, {"measurement": "damage to plant (100=total damage to plant; 0=no damage to plant), GLXMA", "setting": "rate 130, evaluated after 15 d", "result": 0}, {"measurement": "damage to plant (100=total damage to plant; 0=no damage to plant), GLXMA", "setting": "rate 250, evaluated after 15 d", "result": 0}, {"measurement": "damage to plant (100=total damage to plant; 0=no damage to plant), GLXMA", "setting": "rate 500, evaluated after 15 d", "result": 20}, {"measurement": "damage to plant (100=total damage to plant; 0=no damage to plant), IPOHE", "setting": "rate 130, evaluated after 15 d", "result": 0}, {"measurement": "damage to plant (100=total damage to plant; 0=no damage to plant), IPOHE", "setting": "rate 250, evaluated after 15 d", "result": 0}, {"measurement": "damage to plant (100=total damage to plant; 0=no damage to plant), IPOHE", "setting": "rate 500, evaluated after 15 d", "result": 20}, {"measurement": "damage to plant (100=total damage to plant; 0=no damage to plant), ORYSA", "setting": "rate 130, evaluated after 15 d", "result": 0}, {"measurement": "damage to plant (100=total damage to plant; 0=no damage to plant), ORYSA", "setting": "rate 250, evaluated after 15 d", "result": 0}, {"measurement": "damage to plant (100=total damage to plant; 0=no damage to plant), ORYSA", "setting": "rate 500, evaluated after 15 d", "result": 10}, {"measurement": "damage to plant (100=total damage to plant; 0=no damage to plant), PANMI", "setting": "rate 130, evaluated after 15 d", "result": 0}, {"measurement": "damage to plant (100=total damage to plant; 0=no damage to plant), PANMI", "setting": "rate 250, evaluated after 15 d", "result": 10}, {"measurement": "damage to plant (100=total damage to plant; 0=no damage to plant), PANMI", "setting": "rate 500, evaluated after 15 d", "result": 40}, {"measurement": "damage to plant (100=total damage to plant; 0=no damage to plant), SETFA", "setting": "rate 130, evaluated after 15 d", "result": 0}, {"measurement": "damage to plant (100=total damage to plant; 0=no damage to plant), SETFA", "setting": "rate 250, evaluated after 15 d", "result": 50}, {"measurement": "damage to plant (100=total damage to plant; 0=no damage to plant), SETFA", "setting": "rate 500, evaluated after 15 d", "result": 70}, {"measurement": "damage to plant (100=total damage to plant; 0=no damage to plant), SORVU", "setting": "rate 130, evaluated after 15 d", "result": 0}, {"measurement": "damage to plant (100=total damage to plant; 0=no damage to plant), SORVU", "setting": "rate 250, evaluated after 15 d", "result": 0}, {"measurement": "damage to plant (100=total damage to plant; 0=no damage to plant), SORVU", "setting": "rate 500, evaluated after 15 d", "result": 20}]}]}
